Measured values taken from publication PMC4890880 (ACS infectious diseases, 2016).

tested on: HepG2-A16-CD81EGFP cells; test: cells; conditions: Homo sapiens, HepG2, read-out: HepG2 Tox% @ 50 uM rep1

Structure (SMILES)	cytotoxicity at 50 µM
Cc1ccc(Cl)cc1N1CCN(CCCNC(=O)C2CCN(c3nc4ccccc4[nH]3)CC2)CC1 [MMV019746]	100%
Cc1cc(C)c2nc(N3CCC(C(=O)NCCCN4CCC(N5CCCCC5)CC4)CC3)sc2c1 [MMV019780]	98%
O=C(NC1CCN(Cc2ccccc2)CC1)c1cc(C(=O)NC2CCN(Cc3ccccc3)CC2)cc(C(=O)NC2CCN(Cc3ccccc3)CC2)c1 [MMV019881]	101%
Clc1cc(Br)ccc1-c1ccc(CNCC2CCNCC2)o1 [MMV019918]	97%
O=C(NCCCN1CCC(N2CCCCC2)CC1)C1=Cc2cc(Br)ccc2OC1 [MMV019995]	100%
Cc1cc(N(C)C)nc(Nc2ccc(NC(=O)Nc3ccccc3)cc2)n1 [MMV020243]	96%
Cc1ccc(-c2nc3ccccc3o2)cc1NCc1cc(Cc2ccccc2)ccc1O [MMV020912]	13%
COc1cc2c(cc1OC)C1=NNC(=O)C1=NC(C)(C)C2 [MMV084940]	99%
COc1ccccc1N=C1C(=O)c2ccccc2C(O)=C1N1CCCCC1 [MMV085203]	94%
Cc1ccc(C(=O)c2oc3ccc4c(C)cc(=O)oc4c3c2C)cc1 [MMV086103]	40%
CC(C)(C)c1ccc(C(=O)Nc2nc3ccccc3s2)cc1 [MMV142383]	89%
COc1ccc2nc(C)cc(Nc3ccccc3O)c2c1 [MMV274073]	59%
CCn1nc(-c2ccc(C(=O)OC)cc2)nc2c(=O)n(C)c(=O)nc1-2 [MMV306025]	99%
CCOc1c(Cl)cc(CNCC(O)c2ccccc2)cc1OC (stereo not drawn) [MMV396632]	82%
CCOc1cc(CNC(C)C(O)c2ccccc2)cc(Cl)c1OCC (stereo not drawn) [MMV396633]	98%
Cc1sc(NC(=O)c2ccco2)c(C(c2cccnc2)N2CCC(Cc3ccccc3)CC2)c1C (stereo not drawn) [MMV396663]	82%
CCOC(=O)c1c(C)n(-c2ccccc2)c2ccc(OC(=O)c3cc(OC)c(OC)c(OC)c3)cc12 [MMV396664]	61%
COc1cc(C(=O)Nc2nc3c(cc4c5c(cccc53)CC4)s2)cc(OC)c1OC [MMV396665]	11%
O=C(NCC(c1ccsc1)N1CCCCCC1)c1ccc(C(F)(F)F)cc1 (stereo not drawn) [MMV396672]	98%
O=C(CSc1nccn2nc(-c3ccccc3)cc12)Nc1cc(C(F)(F)F)ccc1Cl [MMV396678]	-13%
C[n+]1c2ccccc2nc2ccc(NCCO)cc21 [MMV396693]	81%

same assay, conditions: Homo sapiens, HepG2, read-out: HepG2 Tox% @ 50 uM rep2

Structure (SMILES)	cytotoxicity at 50 µM
Cc1ccc(Cl)cc1N1CCN(CCCNC(=O)C2CCN(c3nc4ccccc4[nH]3)CC2)CC1 [MMV019746]	101%
Cc1cc(C)c2nc(N3CCC(C(=O)NCCCN4CCC(N5CCCCC5)CC4)CC3)sc2c1 [MMV019780]	98%
Clc1cc(Br)ccc1-c1ccc(CNCC2CCNCC2)o1 [MMV019918]	99%
COc1cc2c(cc1OC)C1=NNC(=O)C1=NC(C)(C)C2 [MMV084940]	100%
COc1ccccc1N=C1C(=O)c2ccccc2C(O)=C1N1CCCCC1 [MMV085203]	97%
CC(C)(C)c1ccc(C(=O)Nc2nc3ccccc3s2)cc1 [MMV142383]	96%
COc1ccc2nc(C)cc(Nc3ccccc3O)c2c1 [MMV274073]	88%
CCn1nc(-c2ccc(C(=O)OC)cc2)nc2c(=O)n(C)c(=O)nc1-2 [MMV306025]	101%
CCOc1c(Cl)cc(CNCC(O)c2ccccc2)cc1OC (stereo not drawn) [MMV396632]	76%
CCOc1cc(CNC(C)C(O)c2ccccc2)cc(Cl)c1OCC (stereo not drawn) [MMV396633]	99%
O=C(NCC(c1ccsc1)N1CCCCCC1)c1ccc(C(F)(F)F)cc1 (stereo not drawn) [MMV396672]	99%
O=C(CSc1nccn2nc(-c3ccccc3)cc12)Nc1cc(C(F)(F)F)ccc1Cl [MMV396678]	-3%
C[n+]1c2ccccc2nc2ccc(NCCO)cc21 [MMV396693]	93%

same assay, conditions: Homo sapiens, HepG2, read-out: Tox IC50

Structure (SMILES)	IC50
O=C(NC1CCN(Cc2ccccc2)CC1)c1cc(C(=O)NC2CCN(Cc3ccccc3)CC2)cc(C(=O)NC2CCN(Cc3ccccc3)CC2)c1 [MMV019881]	> 50 µM
Clc1cc(Br)ccc1-c1ccc(CNCC2CCNCC2)o1 [MMV019918]	15.6 µM
Cc1cc(N(C)C)nc(Nc2ccc(NC(=O)Nc3ccccc3)cc2)n1 [MMV020243]	15.7 µM
COc1cc2c(cc1OC)C1=NNC(=O)C1=NC(C)(C)C2 [MMV084940]	31.3 µM
COc1ccccc1N=C1C(=O)c2ccccc2C(O)=C1N1CCCCC1 [MMV085203]	3.13 µM

same assay, conditions: Homo sapiens, HepG2, read-out: Tox max inhibition (%) @ 50 uM

Structure (SMILES)	inhibition at 50 µM
O=C(NC1CCN(Cc2ccccc2)CC1)c1cc(C(=O)NC2CCN(Cc3ccccc3)CC2)cc(C(=O)NC2CCN(Cc3ccccc3)CC2)c1 [MMV019881]	60%
Clc1cc(Br)ccc1-c1ccc(CNCC2CCNCC2)o1 [MMV019918]	100%
Cc1cc(N(C)C)nc(Nc2ccc(NC(=O)Nc3ccccc3)cc2)n1 [MMV020243]	100%
COc1cc2c(cc1OC)C1=NNC(=O)C1=NC(C)(C)C2 [MMV084940]	94%
COc1ccccc1N=C1C(=O)c2ccccc2C(O)=C1N1CCCCC1 [MMV085203]	96%

tested on: Plasmodium berghei (Pb-Luc) exoerythrocytic-stage parasites; test: microbe, parasite or virus in culture; conditions: read-out: Inhibition% @ 50 uM rep1

Structure (SMILES)	inhibition at 50 µM
Cc1ccc(Cl)cc1N1CCN(CCCNC(=O)C2CCN(c3nc4ccccc4[nH]3)CC2)CC1 [MMV019746]	103%
Cc1cc(C)c2nc(N3CCC(C(=O)NCCCN4CCC(N5CCCCC5)CC4)CC3)sc2c1 [MMV019780]	101%
O=C(NC1CCN(Cc2ccccc2)CC1)c1cc(C(=O)NC2CCN(Cc3ccccc3)CC2)cc(C(=O)NC2CCN(Cc3ccccc3)CC2)c1 [MMV019881]	104%
Clc1cc(Br)ccc1-c1ccc(CNCC2CCNCC2)o1 [MMV019918]	103%
O=C(NCCCN1CCC(N2CCCCC2)CC1)C1=Cc2cc(Br)ccc2OC1 [MMV019995]	102%
Cc1cc(N(C)C)nc(Nc2ccc(NC(=O)Nc3ccccc3)cc2)n1 [MMV020243]	96%
Cc1ccc(-c2nc3ccccc3o2)cc1NCc1cc(Cc2ccccc2)ccc1O [MMV020912]	75%
COc1cc2c(cc1OC)C1=NNC(=O)C1=NC(C)(C)C2 [MMV084940]	103%
COc1ccccc1N=C1C(=O)c2ccccc2C(O)=C1N1CCCCC1 [MMV085203]	103%
Cc1ccc(C(=O)c2oc3ccc4c(C)cc(=O)oc4c3c2C)cc1 [MMV086103]	103%
CC(C)(C)c1ccc(C(=O)Nc2nc3ccccc3s2)cc1 [MMV142383]	103%
COc1ccc2nc(C)cc(Nc3ccccc3O)c2c1 [MMV274073]	100%
CCn1nc(-c2ccc(C(=O)OC)cc2)nc2c(=O)n(C)c(=O)nc1-2 [MMV306025]	104%
CCOc1c(Cl)cc(CNCC(O)c2ccccc2)cc1OC (stereo not drawn) [MMV396632]	99%
CCOc1cc(CNC(C)C(O)c2ccccc2)cc(Cl)c1OCC (stereo not drawn) [MMV396633]	101%
Cc1sc(NC(=O)c2ccco2)c(C(c2cccnc2)N2CCC(Cc3ccccc3)CC2)c1C (stereo not drawn) [MMV396663]	103%
CCOC(=O)c1c(C)n(-c2ccccc2)c2ccc(OC(=O)c3cc(OC)c(OC)c(OC)c3)cc12 [MMV396664]	100%
COc1cc(C(=O)Nc2nc3c(cc4c5c(cccc53)CC4)s2)cc(OC)c1OC [MMV396665]	76%
O=C(NCC(c1ccsc1)N1CCCCCC1)c1ccc(C(F)(F)F)cc1 (stereo not drawn) [MMV396672]	104%
O=C(CSc1nccn2nc(-c3ccccc3)cc12)Nc1cc(C(F)(F)F)ccc1Cl [MMV396678]	68%
C[n+]1c2ccccc2nc2ccc(NCCO)cc21 [MMV396693]	102%

same assay, conditions: read-out: Inhibition% @ 50 uM rep2

Structure (SMILES)	inhibition at 50 µM
Cc1ccc(Cl)cc1N1CCN(CCCNC(=O)C2CCN(c3nc4ccccc4[nH]3)CC2)CC1 [MMV019746]	105%
Cc1cc(C)c2nc(N3CCC(C(=O)NCCCN4CCC(N5CCCCC5)CC4)CC3)sc2c1 [MMV019780]	101%
O=C(NC1CCN(Cc2ccccc2)CC1)c1cc(C(=O)NC2CCN(Cc3ccccc3)CC2)cc(C(=O)NC2CCN(Cc3ccccc3)CC2)c1 [MMV019881]	104%
Clc1cc(Br)ccc1-c1ccc(CNCC2CCNCC2)o1 [MMV019918]	105%
O=C(NCCCN1CCC(N2CCCCC2)CC1)C1=Cc2cc(Br)ccc2OC1 [MMV019995]	102%
Cc1cc(N(C)C)nc(Nc2ccc(NC(=O)Nc3ccccc3)cc2)n1 [MMV020243]	99%
Cc1ccc(-c2nc3ccccc3o2)cc1NCc1cc(Cc2ccccc2)ccc1O [MMV020912]	76%
COc1cc2c(cc1OC)C1=NNC(=O)C1=NC(C)(C)C2 [MMV084940]	102%
COc1ccccc1N=C1C(=O)c2ccccc2C(O)=C1N1CCCCC1 [MMV085203]	105%
Cc1ccc(C(=O)c2oc3ccc4c(C)cc(=O)oc4c3c2C)cc1 [MMV086103]	103%
CC(C)(C)c1ccc(C(=O)Nc2nc3ccccc3s2)cc1 [MMV142383]	105%
COc1ccc2nc(C)cc(Nc3ccccc3O)c2c1 [MMV274073]	100%
CCn1nc(-c2ccc(C(=O)OC)cc2)nc2c(=O)n(C)c(=O)nc1-2 [MMV306025]	105%
CCOc1c(Cl)cc(CNCC(O)c2ccccc2)cc1OC (stereo not drawn) [MMV396632]	96%
CCOc1cc(CNC(C)C(O)c2ccccc2)cc(Cl)c1OCC (stereo not drawn) [MMV396633]	102%
Cc1sc(NC(=O)c2ccco2)c(C(c2cccnc2)N2CCC(Cc3ccccc3)CC2)c1C (stereo not drawn) [MMV396663]	103%
CCOC(=O)c1c(C)n(-c2ccccc2)c2ccc(OC(=O)c3cc(OC)c(OC)c(OC)c3)cc12 [MMV396664]	101%
COc1cc(C(=O)Nc2nc3c(cc4c5c(cccc53)CC4)s2)cc(OC)c1OC [MMV396665]	80%
O=C(NCC(c1ccsc1)N1CCCCCC1)c1ccc(C(F)(F)F)cc1 (stereo not drawn) [MMV396672]	104%
O=C(CSc1nccn2nc(-c3ccccc3)cc12)Nc1cc(C(F)(F)F)ccc1Cl [MMV396678]	82%
C[n+]1c2ccccc2nc2ccc(NCCO)cc21 [MMV396693]	104%

same assay, conditions: read-out: PbLuc IC50, dose response, 1/3 dilutions, max conc. 10 or 50 uM, unit inferred

Structure (SMILES)	IC50
O=C(NC1CCN(Cc2ccccc2)CC1)c1cc(C(=O)NC2CCN(Cc3ccccc3)CC2)cc(C(=O)NC2CCN(Cc3ccccc3)CC2)c1 [MMV019881]	14.7 µM
Clc1cc(Br)ccc1-c1ccc(CNCC2CCNCC2)o1 [MMV019918]	8.14 µM
Cc1cc(N(C)C)nc(Nc2ccc(NC(=O)Nc3ccccc3)cc2)n1 [MMV020243]	1.45 µM
COc1cc2c(cc1OC)C1=NNC(=O)C1=NC(C)(C)C2 [MMV084940]	4.02 µM
COc1ccccc1N=C1C(=O)c2ccccc2C(O)=C1N1CCCCC1 [MMV085203]	0.564 µM

same assay, conditions: read-out: PbLuc max inhibition (%) @ 50 uM

Structure (SMILES)	inhibition at 50 µM
O=C(NC1CCN(Cc2ccccc2)CC1)c1cc(C(=O)NC2CCN(Cc3ccccc3)CC2)cc(C(=O)NC2CCN(Cc3ccccc3)CC2)c1 [MMV019881]	94%
Clc1cc(Br)ccc1-c1ccc(CNCC2CCNCC2)o1 [MMV019918]	99%
Cc1cc(N(C)C)nc(Nc2ccc(NC(=O)Nc3ccccc3)cc2)n1 [MMV020243]	100%
COc1cc2c(cc1OC)C1=NNC(=O)C1=NC(C)(C)C2 [MMV084940]	99%
COc1ccccc1N=C1C(=O)c2ccccc2C(O)=C1N1CCCCC1 [MMV085203]	100%
